Like-named read-outs stand apart in the source and are kept apart here.
Tests used:
[1] = test system: Aedes aegypti; conditions: filter paper discs, after a 24-hour exposure
Procedure: Briefly, yellow fever mosquito, Ae. aegypti were obtained from strains that have been cultured in the laboratory of the Entomology and Nematology Department, University of Florida.
The mortality rate is measured after a 2-hour, 4-hour and 24-hour exposure period. Ataxic mosquitoes are considered dead.
The ability of Ae. aegypti to recover from insecticidal exposure is also investigated. After a 2-hour exposure, each set of Ae. aegypti is transferred into a separate jar. The mortality rate is measured at two time intervals: first, immediately at the transfer (2 hours after the initial exposure), and second, 22 hours after the transfer (24 hours after the initial exposure).

[2] = test system: Musca domestica; conditions: M. domestica; formulation on plywood panels at 1.67 mg cm^−2; mortality 24 h after
Procedure: Briefly, each fly strain is divided into eight sets: three sets as the experiment, four sets as the positive control, and one set as the negative control. Flies are assayed on unpainted plywood panel boards that have been previously exposed to natural summer weather conditions for at least 10 days. […] The positive control set is treated with permethrin, geranyl acetone, rosalva or citronellol. The negative control set is treated with water. The formulation is applied at a uniform rate of 7.5 ml per 225 cm^2, sufficient to cover the entire panel without dripping. Subsequently, the treated panel boards are dried for about an hour.
In each set, 20 adult flies are placed onto the panel boards. Flies are secured with wooden embroidery hoops, covered with a coarse mesh screen cloth previously sprayed with the respective formulation. After 4 hours, flies are transferred into a clean jar. The mortality rate is measured 24 hours after the transfer, and is determined using the same procedures as are illustrated in Example 2.
Plywood panels (225 cm^2) were treated with chemicals at a rate of 1.67 mgcm^−2. Panels were treated on day 0 and held until exposure on post-treatment day. Mosquitoes were exposed to chemicals for 2 h, and mortality rate was assessed 24 h after initial exposure. Control contained formulation ingredients without semiochemicals.

[3] = test system: Musca domestica; conditions: formulation on plywood panels, 3.33 mg cm^−2 (footnote 1.67), 2 h exposure, mortality 24 h after
Procedure: Briefly, after Musca domestica is exposed to formulations at concentration of 3.33 mg cm^−2 for 2 hours, each set is transferred into a separate glass jar, and held for another 24 hours.
(§1) Plywood panels (225 cm^2) were treated with chemicals at a rate of 1.67 mg cm^−2. Panels were treated on day 0 and was held until exposure on post-treatment day. Mosquitoes were exposed to chemicals for 2 h, and mortality rate was assessed 24 h after initial exposure. Control contained formulation ingredients without semiochemicals.

[4] = test system: Aedes aegypti; conditions: formulation on plywood panels at 1.67 mg cm^−2, 2 h exposure, mortality 24 h after initial exposure
Procedure: Briefly, after mosquitoes are assayed on unpainted plywood panel boards with formulation at a concentration of 1.67 mg cm^−2 for 2 hours, they are transferred into a separate glass jar, and held for another 24 hours. The mortality rate is measured daily for a continuous 4 days (Day 1 starts at 24 hours after the transfer), as is determined using the same procedures as are illustrated in Example 2.
as §1

SMILES: CC1(C)CCCC2=C1CC(C=O)CC2 (stereo not drawn) [Cyclemone A, 2-naphthaldehyde, 1,2,3,4,5,6,7,8-octahydro-8,8-dimethyl]
- mortality rate [1]: ~100%
- % mortality [2]: 48.20b %
- % mortality on various days following treatment ([3]; day 1): 100.00a %
- % mortality on various days following treatment ([3]; day 2): 49.25b %
- % mortality on various days following treatment ([3]; day 3): 48.25b %
- % mortality on various days following treatment ([3]; day 5): 27.75c %
- % mortality on various days following treatment ([3]; day 7): 18.75b %
- % mortality on various days following treatment ([3]; day 14): 9.00b %
- % mortality on various days following treatment ([4]; day 1): 100.00a %
- % mortality on various days following treatment ([4]; day 2): 72.00b %
- % mortality on various days following treatment ([4]; day 3): 28.0b %
- % mortality on various days following treatment ([4]; day 4): 13.0b %

From patent US8772348B2, “Materials and methods for pest control” (priority 2009, dated 2014)
